Residue numbers refer to the chain shown, from its start.
Legend:
HγD = molecular target: T1, HγD (Homo sapiens, UniProt P07320); assay: Steady-state tryptophan fluorescence quenching, HγD; type: binding
T1 construct: made in house; host or cells: E. coli BL21(DE3) pLysS, pET3d vector
T1 sequence (P07320 1-174): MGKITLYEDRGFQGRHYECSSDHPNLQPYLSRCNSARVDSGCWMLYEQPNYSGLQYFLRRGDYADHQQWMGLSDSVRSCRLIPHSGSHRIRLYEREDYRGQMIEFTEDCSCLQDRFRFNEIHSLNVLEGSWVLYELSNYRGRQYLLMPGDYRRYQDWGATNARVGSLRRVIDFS
Description: Tryptophan fluorescence can be used for studying conformational changes resulting from protein–drug interactions ([44]). Fluorescence quenching of aromatic fluorophores in HγD and MγS by drugs C and G at three different temperatures (25, 30, and 37 °C) was studied in the presence of varying concentrations of drug C and G (0–250 μM). As shown in Figs. S5A and S6A, both HγD and MγS have a strong emission peak at 330 nm when excited at 295 nm. In both cases, quenching occurs with gradual addition of C and G at all three temperatures. Overall, quenching of Trp fluorescence emission is at highest at 25 °C (Figs. S5A and S6A) followed by 30 °C and lowest at 37 °C. […] The slope of plot Fo/F versus [Q] gives Ksv (Figs. S5B and S6B), whereas Kb is obtained from intercept of plot log (Fo/F − 1) versus log[Q] (Figs. S5C and S6C). […] For drug M, Kb values are of the order 10^2 M^−1 only. Fluorescence quenching can be either because of random collision between the molecules (dynamic interaction) or because of actual affinity between a protein pocket and drug (static interaction). Dynamic interactions are weaker and nonspecific in nature, whereas static interactions are stronger and more specific ([47]). For more information on the type of interaction, Kq was calculated and compared with the standard value of 2 × 10^10 M^−1s^−1, which is the maximum scatter collision quenching constant of various quenchers with biopolymers ([48]). […] Furthermore, the differential response of Ksv toward temperature change also clarifies the type of quenching. In static quenching, Ksv decreases with an increase in temperature because of the formation of complex with protein, which undergoes dissociation on increasing temperature.
To gauge the strength of the major forces involved in drug–protein complex formation, change in free energy was calculated using Gibbs–Helmholtz equation (Equation 3).(3) ΔG=-RTlnKb ([50]) where, R is gas constant and its value is […], T is absolute temperature (Kelvin) and Kb is binding constant whose value is already calculated using Equation 2. […] Free energy changes are negative at all three temperatures, being maximal at 25 °C. For C, G, and M interaction with HγD, ΔG values were −6.4, −7.9, and −1.9 kcal/mol (at 25 °C), that is, similar to those obtained by molecular docking as described later. These values also reflect the fact that drug M had the least protective effect on unfolding or aggregation of various γ-crystallins (Figs. 2 and S4).
All the steady-state fluorescence measurements were recorded on Fluoromax Spectrofluorometer (Horiba Scientific). For fluorescence quenching measurements, 10 μM of both HγD and MγS crystallins were titrated with varying concentrations of drugs C, G, and M (0–250 μM) at 25, 30, and 37 °C. These samples were excited at 295 nm, and the fluorescence emission was collected from 310 to 410 nm.

HγD-ox = molecular target: T2, HγD-ox (Homo sapiens, UniProt P07320); assay: Thermal unfolding (Tm) of oxidized HγD; type: biochemical; conditions: 100 μM agent, 360/320 nm ratio; 68 ± 0.07 °C without agent
T2 construct: made in house; host or cells: Escherichia coli BL21(DE3) pLysS, pET3d vector
T2 sequence (P07320 1-174): T1 sequence (P07320 1-174)
Source text: In postsubmission experiments, we attempted to find mechanistic clues relevant to the use of an H2O2 oxidation step prior to the thermal stress used during the initial drug screen. For this reason, we did a comparative study of oxidized (HγD-ox) versus native HγD (HyD-nat), hypothesizing that bis-ANS would both act like the drugs and provide information on the role of exposed hydrophobicity ([40]). HγD was oxidized in diethylenetriaminepentaacetic acid […] phosphate buffer to facilitate hydroxyl radical formation and protein damage, followed by dialysis against DTPA-treated buffer to eliminate the known proaggregating effects of divalent metals ([32]) in the subsequent steps. […] Overall protective effects were more pronounced for the oxidized than nonoxidized form of HγD. […] In the hope to obtain clues on the impact of bis-ANS, drugs C, G, and M on protein aggregation status, native PAGE was performed (Fig. 3G). Polymers greater than 250 kD are present in unheated HγD-nat but only the size of 75 to 100 kD in HγD-ox. […] Other techniques will be needed to assess the relationship between drugs and aggregate size.
Thermal denaturation study was monitored using fluorescence spectroscopy. Protein solutions (10 μM) in the presence and absence of drugs or bis-ANS (100 μM) were heated continuously from 30 to 95 °C, and the fluorescence data were collected every 5 °C after 1 min equilibration at the given temperature. Unfolding data were fit to Greene and Pace’s two-state model ([82]) using GraphPad Prism software (GraphPad Software, Inc).

R58H mutant of HγD = molecular target: T3, R58H mutant of HγD (Homo sapiens, UniProt P07320, R59H); assay: End-point turbidity assay (72 °C, 20 min) of R58H mutant; type: biochemical; conditions: 500 μM drug, read-out: Inhibition of aggregation (%) R58H
T3 construct: made in house; host or cells: E. coli BL21(DE3) pLysS
T3 sequence (P07320 1-174 R59H): T1 sequence (P07320 1-174) with R59H
Description: Aggregation kinetics assays at 600 nm in the presence of varying concentrations (0, 100, 200, 300, 400, and 500 μM) of our selected drugs were also performed on mutants of HγD (W43R, W42Q, R14C, and R58H) and MγS (F9S) at a concentration of 1 mg/ml in 50 mM K3PO4 buffer (pH 7.2) in a total volume of 100 μl. WT-HγD and WT-MγS crystallin served as controls for their respective mutant versions. For W43R mutant, aggregation assay was done at 42 °C for a total of 200 min. Absorbance was monitored every 10 min. For R14C and R58H mutants, end-point turbidity assay was done at 72 °C for 20 min. […] All the experiments were run in duplicates or triplicates.

## Cc1cc(C(C#N)c2ccc(Cl)cc2)c(Cl)cc1NC(=O)c1cc(I)cc(I)c1O (stereo not shown) [drug C, Closantel]
HγD; 25 °C
  KSV: 4.215 M^−1 ×10^3
  Kq: 0.739 M^−1 s^−1 ×10^12
  ΔG: −6.4 kcalM^−1
HγD; 30 °C
  KSV: 4.197 M^−1 ×10^3
  Kq: 0.736 M^−1 s^−1 ×10^12
  ΔG: −6.2 kcalM^−1
HγD; 37 °C
  KSV: 4.107 M^−1 ×10^3
  Kq: 0.72 M^−1 s^−1 ×10^12
  ΔG: −5.9 kcalM^−1
HγD; at 25 °C
  ΔG: -6.4 kcal/mol
HγD-ox
  Tm of HγD-ox: increased all Tm values to the maximum value
R58H mutant of HγD
  inhibition at 500 µM: 55%

## CC(C)=CCC[C@]1(C)C=Cc2c(O)c3c(c(CC=C(C)C)c2O1)O[C@]12C(=C[C@@H]4C[C@H]1C(C)(C)O[C@@]2(C/C=C(/C)C(=O)O)C4=O)C3=O [drug G, Gambogic acid]
HγD; 25 °C
  KSV: 10.252 M^−1 ×10^3
  Kq: 1.79 M^−1 s^−1 ×10^12
  ΔG: −7.9 kcalM^−1
HγD; 30 °C
  KSV: 8.440 M^−1 ×10^3
  Kq: 1.47 M^−1 s^−1 ×10^12
  ΔG: −7.7 kcalM^−1
HγD; 37 °C
  KSV: 7.880 M^−1 ×10^3
  Kq: 1.38 M^−1 s^−1 ×10^12
  ΔG: −7.2 kcalM^−1
HγD; at 25 °C
  ΔG: -7.9 kcal/mol
HγD-ox
  Tm of HγD-ox: increased all Tm values to the maximum value
R58H mutant of HγD
  inhibition at 500 µM: 83%

## O=C(O)CCCCCCCCCCCC[C@@H]1C=CCC1 [drug M, Chaulmoogric acid]
HγD; 25 °C
  KSV: 0.288 M^−1 ×10^3
  Kq: 0.051 M^−1 s^−1 ×10^12
  ΔG: −1.9 kcalM^−1
HγD; 30 °C
  KSV: 0.507 M^−1 ×10^3
  Kq: 0.08 M^−1 s^−1 ×10^12
  ΔG: −2.5 kcalM^−1
HγD; 37 °C
  KSV: 0.680 M^−1 ×10^3
  ΔG: −2.6 kcalM^−1
HγD; at 25 °C
  ΔG: -1.9 kcal/mol
R58H mutant of HγD
  inhibition at 500 µM: 44%

Source: article PMC9525908, “α-Crystallin chaperone mimetic drugs inhibit lens γ-crystallin aggregation: Potential role for cataract prevention” (The Journal of Biological Chemistry, 2022)
